Measurements reported in patent publication US20220370440A1 (Lead Discovery Center GmbH, priority 2018, published 2022).

Tests used:
[1] = biological target: Her2 Exon 20 INSYVMA Ba/F3 (Homo sapiens, UniProt P04626, DUP772-775, cells depend on it); experiment: Her2 Exon 20 INSYVMA Ba/F3 CellTiter-Glo; assay type: cell-based; details: CellTiter-Glo, 72 h, read-out: Her2 Exon 20 INSYVMA Ba/F3 CTG IC50
Summary of the method: (§1)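 Ba/F3 cells dependent on the mutant kinase, seeded and grown 24 h, then treated with compound for 72 h at 37 °C, 5% CO2. Viability by CellTiter-Glo ATP luminescence versus DMSO and 10 μM staurosporine controls; IC50 from dose-response fit, plates accepted at Z′ ≥0.5; bins A ≤100 nM to E >10000 nM.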

[2] = biological target: EGFR Exon 20 INSNPH Ba/F3 (Homo sapiens, UniProt P00533, DUP771-773, cells depend on it); experiment: EGFR Exon 20 INSNPH Ba/F3 CellTiter-Glo; assay type: cell-based; details: CellTiter-Glo, 72 h, read-out: EGFR Exon 20 INSNPH Ba/F3 CTG IC50
Summary of the method: as §1

[3] = biological target: EGFR T790ML858R (Homo sapiens, UniProt P00533, L858R/T790M); experiment: EGFR T790ML858R Lance assay; assay type: biochemical
Chain of EGFR T790ML858R (P00533 25-1210 T790M/L858R): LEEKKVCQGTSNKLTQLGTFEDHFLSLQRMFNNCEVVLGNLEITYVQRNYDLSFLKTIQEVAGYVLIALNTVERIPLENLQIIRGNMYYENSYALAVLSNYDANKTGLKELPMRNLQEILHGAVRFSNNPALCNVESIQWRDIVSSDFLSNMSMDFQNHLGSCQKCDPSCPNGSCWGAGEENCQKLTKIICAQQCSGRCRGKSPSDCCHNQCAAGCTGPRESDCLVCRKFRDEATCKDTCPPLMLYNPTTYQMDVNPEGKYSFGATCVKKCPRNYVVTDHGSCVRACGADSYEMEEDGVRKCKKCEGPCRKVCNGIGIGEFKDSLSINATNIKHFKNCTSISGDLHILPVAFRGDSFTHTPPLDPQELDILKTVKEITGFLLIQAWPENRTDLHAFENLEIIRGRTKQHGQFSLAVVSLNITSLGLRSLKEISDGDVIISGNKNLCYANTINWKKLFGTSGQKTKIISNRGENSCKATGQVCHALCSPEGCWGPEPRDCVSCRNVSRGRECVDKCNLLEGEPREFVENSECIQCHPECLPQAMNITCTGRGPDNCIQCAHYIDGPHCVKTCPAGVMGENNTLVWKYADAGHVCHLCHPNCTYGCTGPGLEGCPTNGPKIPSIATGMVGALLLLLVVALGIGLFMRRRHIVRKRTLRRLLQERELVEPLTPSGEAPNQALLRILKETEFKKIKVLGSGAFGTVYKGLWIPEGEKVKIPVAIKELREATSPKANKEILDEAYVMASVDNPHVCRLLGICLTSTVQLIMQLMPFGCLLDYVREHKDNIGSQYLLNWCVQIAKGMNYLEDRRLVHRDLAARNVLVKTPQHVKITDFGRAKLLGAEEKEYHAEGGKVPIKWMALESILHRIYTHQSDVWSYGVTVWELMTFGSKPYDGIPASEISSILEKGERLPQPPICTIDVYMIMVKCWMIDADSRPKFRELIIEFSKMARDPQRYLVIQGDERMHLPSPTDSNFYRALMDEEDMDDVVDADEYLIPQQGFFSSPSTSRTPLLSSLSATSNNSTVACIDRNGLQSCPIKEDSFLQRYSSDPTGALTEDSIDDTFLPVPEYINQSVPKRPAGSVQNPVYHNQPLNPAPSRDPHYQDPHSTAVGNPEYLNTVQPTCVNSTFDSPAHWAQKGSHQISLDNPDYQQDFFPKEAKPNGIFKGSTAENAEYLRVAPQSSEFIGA
Experimental: (§2) Inhibition is indicated as […] [nM] (“−”=not measured). Compounds having an activity designated as “A” provided an IC50≤100 nM; compounds having an activity designated as “B” provided an 100 nM<IC50≤500 nM; compounds having an activity designated as “C” provided an 500 nM<IC50≤1000 nM; compounds having an activity designated as “D” provided an 1000 nM<IC50≤100000 nM; and compounds having an activity designated as “E” provided an IC50>10000 nM.

[4] = Metabolic stability in mouse liver microsomes without cofactor NADPH; assay type: in vitro ADME; details: 3 μM test compound, mouse liver microsomes, without NADPH, 50 min, 37° C., LC-MS/MS
Source text: There are two major groups of enzyme reactions catalyzed by drug metabolizing enzymes, the so called Phase I and Phase II reactions. The basic processes in phase I reactions are oxidation, reduction and/or hydrolysis mostly catalyzed by the cytochrome P450 (CYP) family of enzymes.
The following procedures describe the determination of the in vitro Phase I metabolic stability of test compounds using liver microsomes by measuring compound depletion over time. Test compound at the concentration of 3 μM was incubated with the liver microsomes from the mouse species and the experiment was performed without NADPH. The depletion of the test compounds was measured over time up to 50 minutes at 37° C. by LC-MS/MS. Different compounds were tested under these conditions for microsomal stability (see Table 5).

[5] = test system: A431; experiment: A431 CellTiter-Glo; assay type: cell-based; details: Homo sapiens, A-431; 72 h compound incubation; read-out: A431 CTG IC50
Summary of the method: (§3)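 Luminescence from cellular ATP serves as the viability signal after cells are treated with compound dilutions for 72 h at 37° C. IC50 is derived by curve fitting, with DMSO-treated and 10 μM Staurosporine-treated wells defining the assay window.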

[6] = biological target: EGFR wt (Homo sapiens, UniProt P00533); experiment: EGFR wt Lance assay; assay type: biochemical
Chain of EGFR wt (P00533 25-1210): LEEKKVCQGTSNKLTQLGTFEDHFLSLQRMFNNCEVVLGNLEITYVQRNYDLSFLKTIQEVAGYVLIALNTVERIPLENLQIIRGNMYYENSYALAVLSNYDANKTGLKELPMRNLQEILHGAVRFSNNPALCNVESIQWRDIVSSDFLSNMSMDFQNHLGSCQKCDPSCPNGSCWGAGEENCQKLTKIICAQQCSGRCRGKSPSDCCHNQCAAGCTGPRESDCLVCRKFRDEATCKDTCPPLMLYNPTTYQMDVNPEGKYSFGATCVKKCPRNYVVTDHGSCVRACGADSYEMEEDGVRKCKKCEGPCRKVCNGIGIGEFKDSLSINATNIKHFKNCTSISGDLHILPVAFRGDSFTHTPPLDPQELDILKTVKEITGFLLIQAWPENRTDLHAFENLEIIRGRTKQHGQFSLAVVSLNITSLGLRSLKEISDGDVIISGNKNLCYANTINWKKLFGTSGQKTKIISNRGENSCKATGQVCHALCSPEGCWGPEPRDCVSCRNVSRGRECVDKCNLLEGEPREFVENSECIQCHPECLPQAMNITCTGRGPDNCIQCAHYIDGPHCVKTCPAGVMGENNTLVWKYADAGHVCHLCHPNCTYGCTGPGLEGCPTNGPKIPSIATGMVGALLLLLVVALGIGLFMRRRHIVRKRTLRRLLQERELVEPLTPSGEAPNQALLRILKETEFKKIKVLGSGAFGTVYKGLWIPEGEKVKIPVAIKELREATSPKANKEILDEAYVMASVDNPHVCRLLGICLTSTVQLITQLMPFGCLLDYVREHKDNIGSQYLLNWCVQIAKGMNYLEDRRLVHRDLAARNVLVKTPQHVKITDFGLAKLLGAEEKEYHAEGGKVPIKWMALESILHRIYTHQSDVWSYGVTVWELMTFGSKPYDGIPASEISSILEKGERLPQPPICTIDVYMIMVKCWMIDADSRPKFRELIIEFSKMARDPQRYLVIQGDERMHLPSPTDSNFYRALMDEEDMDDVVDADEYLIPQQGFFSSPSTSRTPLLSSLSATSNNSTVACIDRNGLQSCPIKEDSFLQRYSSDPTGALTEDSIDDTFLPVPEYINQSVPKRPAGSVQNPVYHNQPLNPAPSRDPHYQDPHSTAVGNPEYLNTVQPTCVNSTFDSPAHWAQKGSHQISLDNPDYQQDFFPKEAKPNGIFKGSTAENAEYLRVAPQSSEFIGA
Experimental: as §2

[7] = biological target: T1, HER2 INS YVMA (Homo sapiens, UniProt P04626, INS775YVMA); experiment: Lance Kinase Activity Assay, HER2 INS YVMA (Her2 Exon 20 INSYVMA Lance); assay type: biochemical; details: biochemical Lance assay
T1 construct: purchased DPF
T1 sequence (P04626 with tags, fused parts or gaps INS775YVMA): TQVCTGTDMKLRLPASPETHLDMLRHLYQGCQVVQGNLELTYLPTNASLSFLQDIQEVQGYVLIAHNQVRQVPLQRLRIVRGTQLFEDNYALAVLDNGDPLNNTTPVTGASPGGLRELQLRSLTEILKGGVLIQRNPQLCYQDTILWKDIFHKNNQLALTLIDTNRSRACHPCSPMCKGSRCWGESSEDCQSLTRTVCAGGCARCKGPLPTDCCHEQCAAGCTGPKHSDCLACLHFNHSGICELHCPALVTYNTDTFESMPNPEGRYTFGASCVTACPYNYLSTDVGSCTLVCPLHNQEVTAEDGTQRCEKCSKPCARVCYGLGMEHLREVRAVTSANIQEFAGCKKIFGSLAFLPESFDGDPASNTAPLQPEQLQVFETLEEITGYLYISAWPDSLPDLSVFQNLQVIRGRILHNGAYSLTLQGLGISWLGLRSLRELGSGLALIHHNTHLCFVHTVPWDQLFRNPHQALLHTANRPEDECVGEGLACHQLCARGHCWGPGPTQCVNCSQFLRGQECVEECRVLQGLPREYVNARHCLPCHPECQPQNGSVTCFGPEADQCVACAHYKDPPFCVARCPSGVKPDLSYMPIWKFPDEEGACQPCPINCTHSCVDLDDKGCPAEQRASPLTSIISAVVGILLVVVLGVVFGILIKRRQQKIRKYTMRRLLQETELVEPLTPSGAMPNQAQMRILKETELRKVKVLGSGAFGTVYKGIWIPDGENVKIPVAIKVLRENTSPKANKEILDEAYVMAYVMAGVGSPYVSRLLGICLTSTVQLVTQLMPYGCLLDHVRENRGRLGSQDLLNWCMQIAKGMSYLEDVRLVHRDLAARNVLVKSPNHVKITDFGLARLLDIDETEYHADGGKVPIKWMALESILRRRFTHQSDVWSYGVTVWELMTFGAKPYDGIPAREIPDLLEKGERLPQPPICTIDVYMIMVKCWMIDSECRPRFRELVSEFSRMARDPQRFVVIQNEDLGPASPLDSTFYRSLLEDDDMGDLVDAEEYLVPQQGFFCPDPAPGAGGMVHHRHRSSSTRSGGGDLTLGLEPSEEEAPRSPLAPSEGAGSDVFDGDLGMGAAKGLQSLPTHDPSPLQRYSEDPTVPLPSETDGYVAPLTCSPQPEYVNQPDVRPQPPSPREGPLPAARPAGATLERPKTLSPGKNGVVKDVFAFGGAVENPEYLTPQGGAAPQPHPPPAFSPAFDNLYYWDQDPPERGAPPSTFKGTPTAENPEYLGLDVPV
Summary of the method: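 Kinase phosphorylates a ULight-labelled peptide substrate; Eu anti-phospho antibody gives TR-FRET (ex 340 nm, em 665/615 nm). Compounds in 1:3 serial dilution over 8 steps, reaction started with ATP, 1 h at room temperature, stopped with EDTA-containing detection mix for 1 h. IC50 from sigmoidal dose-response curves.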

[8] = test system: H1975; experiment: H1975 CellTiter-Glo; assay type: cell-based; details: Homo sapiens, NCI-H1975; 72 h compound incubation; read-out: H1975 CTG IC50
Summary of the method: as §3

Chain of Her2 Exon 20 INSYVMA Ba/F3 (P04626 with tags, fused parts or gaps DUP772-775): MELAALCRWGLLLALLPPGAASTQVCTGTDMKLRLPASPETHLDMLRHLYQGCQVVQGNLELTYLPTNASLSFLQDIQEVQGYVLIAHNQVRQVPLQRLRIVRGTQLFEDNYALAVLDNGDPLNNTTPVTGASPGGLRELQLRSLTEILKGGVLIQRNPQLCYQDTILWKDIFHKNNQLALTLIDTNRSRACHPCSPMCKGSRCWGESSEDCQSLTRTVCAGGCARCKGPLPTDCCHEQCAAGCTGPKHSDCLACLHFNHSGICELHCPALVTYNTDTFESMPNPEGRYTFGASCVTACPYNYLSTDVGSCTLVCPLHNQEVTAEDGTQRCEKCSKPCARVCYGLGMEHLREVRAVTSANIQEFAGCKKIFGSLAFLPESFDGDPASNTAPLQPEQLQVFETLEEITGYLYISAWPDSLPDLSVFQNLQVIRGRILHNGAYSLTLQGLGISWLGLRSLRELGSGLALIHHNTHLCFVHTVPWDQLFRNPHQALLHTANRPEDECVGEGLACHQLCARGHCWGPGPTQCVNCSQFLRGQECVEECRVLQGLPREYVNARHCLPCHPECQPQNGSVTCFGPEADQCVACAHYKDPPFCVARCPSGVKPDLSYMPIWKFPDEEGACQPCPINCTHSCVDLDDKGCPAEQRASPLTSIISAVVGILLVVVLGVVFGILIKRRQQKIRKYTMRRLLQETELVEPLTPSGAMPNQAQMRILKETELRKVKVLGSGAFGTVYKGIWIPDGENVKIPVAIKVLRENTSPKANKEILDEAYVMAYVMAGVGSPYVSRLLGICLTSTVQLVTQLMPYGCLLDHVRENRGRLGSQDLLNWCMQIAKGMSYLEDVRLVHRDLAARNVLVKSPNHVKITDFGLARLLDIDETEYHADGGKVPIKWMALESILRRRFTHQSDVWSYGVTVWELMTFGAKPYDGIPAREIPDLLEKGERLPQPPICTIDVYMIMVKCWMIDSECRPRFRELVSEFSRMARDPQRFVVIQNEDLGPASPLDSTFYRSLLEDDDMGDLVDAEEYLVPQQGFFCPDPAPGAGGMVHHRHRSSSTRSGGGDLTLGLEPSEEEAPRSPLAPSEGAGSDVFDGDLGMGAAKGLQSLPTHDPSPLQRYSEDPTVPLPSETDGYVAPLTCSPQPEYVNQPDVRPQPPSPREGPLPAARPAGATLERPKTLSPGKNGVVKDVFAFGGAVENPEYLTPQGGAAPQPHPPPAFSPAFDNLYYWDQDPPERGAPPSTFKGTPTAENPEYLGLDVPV

Row | GI50 [1] [nM] | GI50 [2] [nM] | IC50 [3] [nM] | Stability in presence of mouse liver microsomes without cofactor NADPH [% remaining after 50 min] [4] [% remaining after 50 min] | IC50 [5] [nM] | IC50 [6] [nM] | IC50 [7] [nM] | IC50 [8] [nM] | SMILES
1 | 1000 to 10000 | 1000 to 10000 | ≤ 100 | >99 | 1000 to 100000 | ≤ 100 | ≤ 100 | 500 to 1000 | C=CC(=O)N1CCCc2ccc(-c3c(-c4cccc(CN5CCN(C)CC5)c4)[nH]c4nccc(Cl)c34)cc21 [Example 95, 1-(7-(4-chloro-2-(3-((4-methylpiperazin-1-yl)methyl)phenyl)-1H-pyrrolo[2,3-b]pyridin-3-yl)-3,4-dihydroquinolin-1(2H)-yl)prop-2-en-1-one]
2 | 100 to 500 | 100 to 500 | ≤ 100 | 95 | 1000 to 100000 | ≤ 100 | ≤ 100 | ≤ 100 | C=CC(=O)Nc1cc(-c2c(-c3ccc(N4CCN(C)CC4)cc3)[nH]c3ncc(C(=O)OCC)cc23)ccc1C [Example 135, ethyl 3-(3-acrylamido-4-methylphenyl)-2-(4-(4-methylpiperazin-1-yl)phenyl)-1H-pyrrolo[2,3-b]pyridine-5-carboxylate]
3 | 1000 to 10000 | 1000 to 10000 | ≤ 100 | >99 | 1000 to 100000 | ≤ 100 | 500 to 1000 | 100 to 500 | C=CC(=O)Nc1cc(-c2c(-c3cnc(N4CCOCC4)nc3)[nH]c3nccc(Cl)c23)ccc1C [Example 36, N-(5-(4-chloro-2-(2-morpholinopyrimidin-5-yl)-1H-pyrrolo[2,3-b]pyridin-3-yl)-2-methylphenyl)acrylamide]
4 | 100 to 500 | 100 to 500 | ≤ 100 | 77 | 500 to 1000 | ≤ 100 | ≤ 100 | ≤ 100 | C=CC(=O)N1CCc2ccc(-c3c(-c4cccc(OCCN5CCCC5)c4)[nH]c4nccc(OCC)c34)cc21 [Example 109, 1-(6-(4-ethoxy-2-(3-(2-(pyrrolidin-1-yl)ethoxy)phenyl)-1H-pyrrolo[2,3-b]pyridin-3-yl)indolin-1-yl)prop-2-en-1-one]
5 | 1000 to 10000 | 1000 to 10000 | ≤ 100 | 97 | 1000 to 100000 | 100 to 500 | 1000 to 10000 | 500 to 1000 | C=CC(=O)Nc1cc(-c2c(-c3cccc(CN4CCOCC4)c3)[nH]c3ncccc23)ccc1C [Example 82, N-(2-methyl-5-(2-(3-(morpholinomethyl)phenyl)-1H-pyrrolo[2,3-b]pyridin-3-yl)phenyl)acrylamide]
6 | 100 to 500 | 100 to 500 | ≤ 100 | >99 | 1000 to 100000 | ≤ 100 | ≤ 100 | 100 to 500 | C=CC(=O)Nc1cc(-c2c(-c3ccc(N4CCN(C)CC4)cc3)[nH]c3ncc(C(=O)OC(C)C)cc23)cc(F)c1C [Example 165, isoproyl 3-(3-acrylamido-5-fluoro-4-methylphenyl)-2-(4-(4-methylpiperazin-1-yl)phenyl)-1H-pyrrolo[2,3-b]pyridine-5-carboxylate 2,2,2-trifluoroacetate]
7 | ≤ 100 | ≤ 100 | ≤ 100 | 96 | 100 to 500 | ≤ 100 | ≤ 100 | ≤ 100 | C=CC(=O)N1CCc2ccc(-c3c(-c4ccc(CN5CCN(C)CC5)cc4)[nH]c4nccc(OC)c34)cc21 [Example 113, 1-(6-(4-methoxy-2-(4-((4-methylpiperazin-1-yl)methyl)phenyl)-1H-pyrrolo[2,3-b]pyridin-3-yl)indolin-1-yl)prop-2-en-1-one]
8 | 100 to 500 | 100 to 500 | ≤ 100 | >99 | 500 to 1000 | ≤ 100 | ≤ 100 | ≤ 100 | C=CC(=O)N1CCc2ccc(-c3c(-c4ccc(N5CCN(C)CC5)cc4)[nH]c4nccc(OC(C)C)c34)cc21 [Example 115, 1-(6-(4-isopropoxy-2-(4-(4-methylpiperazin-1-yl)phenyl)-1H-pyrrolo[2,3-b]pyridin-3-yl)indolin-1-yl)prop-2-en-1-one 2,2,2-trifluoroacetate]
9 | 100 to 500 | 500 to 1000 | ≤ 100 | >99 | 500 to 1000 | ≤ 100 | ≤ 100 | ≤ 100 | C=CC(=O)N1CCc2ccc(-c3c(-c4ccc(N(C)CCN(C)C)cc4)[nH]c4nccc(Cl)c34)cc21 [Example 65, 1-(6-(4-chloro-2-(4-((2-(dimethylamino)ethyl)(methyl)amino)phenyl)-1H-pyrrolo[2,3-b]pyridin-3-yl)indolin-1-yl)prop-2-en-1-one]
10 | 1000 to 10000 | 1000 to 10000 | ≤ 100 | >99 | 1000 to 100000 | ≤ 100 | ≤ 100 | 100 to 500 | C=CC(=O)N1CCCc2ccc(-c3c(-c4cccc(OCCN(C)C)c4)[nH]c4nccc(Cl)c34)cc21 [Example 88, 1-(7-(4-chloro-2-(3-(2-(dimethylamino)ethoxy)phenyl)-1H-pyrrolo[2,3-b]pyridin-3-yl)-3,4-dihydroquinolin-1(2H)-yl)prop-2-en-1-one]
11 | 100 to 500 | 100 to 500 | ≤ 100 | >99 | 1000 to 100000 | ≤ 100 | ≤ 100 | 100 to 500 | C=CC(=O)Nc1cc(-c2c(-c3ccc(C4CCN(C)CC4)cc3)[nH]c3ncc(C(=O)OC(C)C)cc23)cc(F)c1C [Example 179, isopropyl 3-(3-acrylamido-5-fluoro-4-methylphenyl)-2-(4-(1-methylpiperidin-4-yl)phenyl)-1H-pyrrolo[2,3-b]pyridine-5-carboxylate]
12 | 100 to 500 | 100 to 500 | ≤ 100 | >99 | 1000 to 100000 | ≤ 100 | ≤ 100 | 100 to 500 | C=CC(=O)Nc1cc(-c2c(-c3ccc(N4CCN(CC)CC4)cc3)[nH]c3ncc(C(=O)OC(C)C)cc23)ccc1C [Example 157, isopropyl 3-(3-acrylamido-4-methylphenyl)-2-(4-(4-ethylpiperazin-1-yl)phenyl)-1H-pyrrolo[2,3-b]pyridine-5-carboxylate]
13 | 100 to 500 | 100 to 500 | ≤ 100 | >99 | 1000 to 100000 | ≤ 100 | ≤ 100 | 100 to 500 | C=CC(=O)Nc1cc(-c2c(-c3ccc(N(C)CCN(C)C)cc3)[nH]c3ncc(C(=O)OC(C)C)cc23)cc(F)c1C [Example 172, isopropyl 3-(3-acrylamido-5-fluoro-4-methylphenyl)-2-(4-((2-(dimethylamino)ethyl)(methyl)amino)phenyl)-1H-pyrrolo[2,3-b]pyridine-5-carboxylate]
